Measured values published in PubChem BioAssay AID2060487 (Molecular Pharmacology Branch, DTP, NCI, 2025).
Several values for one entry are separate records, joined by “and”; a condition that tells them apart may be missing. Identical values can stand only once.

System: 997537-175-T-J1-PDC complex spheroid viability
Assay: Anticancer human tumor 997537-175-T-J1-PDC patient-derived colon adenocarcinoma cell line growth inhibition [GQUAD]
Settings: for viability, T/C: stronger effect = lower value
Excerpt: DNA G-quadruplex Stabilizer Agents in Combinations in Complex Spheroids
A high-throughput screen of multi-cell type tumor spheroids was designed to identify active combinations of DNA G-quadruplex stabilizer agents and targeted small molecules. Complex spheroids include a stromal component modeled by human endothelial cells (HUVEC) and fibroblasts modeled by human mesenchymal stem cells (MSCs). The concentration ranges selected for each drug and investigational agent were based upon clinically achievable concentrations if the clinical Cmax of the agent was known.
Compounds. The drugs and investigational agents: pidnarulex (CX-5461; NSC782164), APTO-253 (NSC789042), BRACO-19 (NSC847499), peposertib (NSC802822), ceralasertib (NSC780249), elimusertib (NSC800525), camonsertib (NSC841442), AZD-1390 (NSC803789), olaparib (NSC753686), talazoparib (NSC767125), ART-558 (NSC835418), sotorasib (NSC818433), MRTX-1133 (NSC836407), SN-38 (NSC673596), topotecan (NSC609699), etoposide (NSC141540), doxorubicin (NSC123127), gemcitabine (NSC613327), 5-fluorouracil (NSC19893), paclitaxel (NSC125973), vemurafenib (NSC761431), panobinostat (NSC761190), R-306465 (JNJ-16241199; NSC773264), adavosertib (NSC754352), TP-3654 (NSC805149), carboplatin (NSC241240), KSQ-4279 (NSC840948), and staurosporine (NSC755774) were obtained from the National Cancer Institute (NCI) Developmental Therapeutics Program Chemical Repository (34). The FDA-approved anticancer drug set is available from the NCI Developmental Therapeutics Program. […] The stock solutions were prepared in dimethyl sulfoxide (DMSO, Sigma-Aldrich, St. Louis, MO, cat. D2650) at 800-fold the tested concentration and stored at -70 degrees C prior to their use. All drugs and investigational agents were tested over a range starting from a high concentration at or near the clinical Cmax and decreasing in half-log increments. If the clinical Cmax for an agent had not been determined, the highest concentration tested was 10 microM.
2.3 Cell Culture. All cells were maintained in an incubator at 37 degrees C and 5% CO2 with 95% humidity. The PDC lines were cultured according to standard operating procedures established by the NCI PDMR. All PDCs were thawed and cultured in Matrigel-coated flasks prepared with a working solution of 1X Ham's F-12 nutrient mix, without supplementation (Invitrogen, cat. 11765054), 100 U/mL penicillin-streptomycin (Invitrogen, cat. 15140122), and 2.5% Matrigel (Corning Inc., cat. 354248) for the first three passages. The 857933-349-R-J2-PDC line was cultured in 6C/Colon 1B media, which includes advanced DMEM/F-12 (Thermo Fisher Scientific, cat. 12634028), 10 mM HEPES (Thermo Fisher Scientific, cat. 15630080), 1X GlutaMAX supplement (Thermo Fisher Scientific, cat. 35050061), 0.1 mg/mL primocin (InvivoGen, cat. ant-pm-2), 10% defined fetal bovine serum, heat inactivated (HyClone Laboratories Inc., cat. SH30070.03HI), 50% L-WRN conditioned media (ATCC, cat. CRL-3276), 1.25 mM N-Acetyl-L-cysteine (Sigma-Aldrich, cat. A9165), 10 mM nicotinamide (Sigma-Aldrich, cat. N0636), 1X B-27 supplement (Thermo Fisher Scientific, cat. 17504044), 1X N-2 supplement (Thermo Fisher Scientific, cat. 17502048), 10 microM Y-27632 dihydrochloride (Tocris Bioscience, cat. 1254), and 50 ng/mL human EGF recombinant protein (Thermo Fisher Scientific, cat. PHG0311). The 485176-168-R4-J1-PDC line was cultured in Panc media, which includes all 6C/Colon 1B media components plus 100 ng/mL human FGF-10 (Thermo Fisher Scientific, cat. 100-26), 500 nM SB-431542 (Selleckchem, cat. S1067), and gastrin (Tocris, cat. 3006).
[…]

[1] = compound alone, run of 04/16/2024
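Note: spheroids exposed to the agents for 7 days.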
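Throughout, for viability, T/C: 100% = DMSO vehicle control viability.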

IC50 (curve of compound) | IC50 [1] | IC50 (compound alone, run of 04/22/2024) | SMILES | viability, T/C (compound 0.0316 µM) | viability, T/C (compound 0.1 µM) | viability, T/C (compound 0.316 µM) | viability, T/C (compound 1 µM) | viability, T/C (compound 3.16 µM) | viability, T/C (compound 10 µM) | viability, T/C (compound 0.000999 µM) | viability, T/C (compound 0.00316 µM) | viability, T/C (compound 0.00999 µM) | viability, T/C (compound 0.0999 µM)
> 10 µM and 7.16 µM and 5.5 µM | – | – | COc1cccc2c1C(=O)c1c(O)c3c(c(O)c1C2=O)CC(O)(C(=O)CO)CC3OC1CC(N)C(O)C(C)O1 (stereo unspecified) | 98.9% and 107% and 104% | 95.5% and 101% and 75.2% | 92.8% and 91.6% and 89.9% | 99.9% and 88.3% and 107% | 76.1% and 72.2% and 74.3% | 51.4% and 40.7% and 23.7% | – | – | – | –
– | > 10 µM | > 10 µM | Cc1[nH]c2ccc(F)cc2c1-c1nc2c3cccnc3c3ncccc3c2[nH]1 | – | 95.2% [middle of 12 runs] | 98.8% [middle of 12 runs] | – | 89.3% [middle of 12 runs] | – | – | – | – | –
> 0.316 µM and 0.316 µM | – | – | Cc1[nH]c2ccccc2c1CCNCc1ccc(/C=C/C(=O)NO)cc1 | 105% and 87.4% and 93.1% | – | 87.6% and 50% and 52% | – | – | – | 93.4% and 96.3% and 94.4% | 101% and 94.2% and 106% | 110% and 59.3% and 109% | 100% and 86.6% and 92.4%
> 0.316 µM | – | – | Cn1ncnc1[C@H]1c2n[nH]c(=O)c3cc(F)cc(c23)N[C@@H]1c1ccc(F)cc1 | 72.1% and 87.1% and 89.7% | – | 85.8% and 73.8% and 89% | – | – | – | 91.9% and 91.2% and 104% | 89.7% and 92.9% and 86% | 107% and 90.8% and 92.9% | 90.8% and 64% and 84%
> 10 µM | – | – | Nc1ccn(C2OC(CO)C(O)C2(F)F)c(=O)n1 (stereo unspecified) | 103% (2×) and 99.3% | 92.3% and 96% and 108% | 93.5% and 99.5% and 101% | 91.9% and 64.2% and 92.5% | 88.4% and 55.3% and 62% | 85.4% and 64.9% and 84.9% | – | – | – | –
> 10 µM | – | – | O=C(c1cc(Cc2n[nH]c(=O)c3ccccc23)ccc1F)N1CCN(C(=O)C2CC2)CC1 | 106% and 94.3% and 90.2% | 88% and 96.7% and 102% | 94.6% and 102% and 107% | 104% and 92.4% and 103% | 102% and 64.4% and 79.6% | 85.2% and 87.2% and 96.7% | – | – | – | –
> 10 µM | – | – | O=c1[nH]cc(F)c(=O)[nH]1 | 108% and 85.2% and 99.8% | 104% and 108% and 86.2% | 96.1% and 89% and 98.1% | 95.1% and 85.5% and 92.2% | 101% and 70.3% and 82.5% | 83.9% and 87.2% and 93.6% | – | – | – | –

Further lines, the compound ahead of its results:

SMILES | IC50 (curve of compound) | IC50 [1] | IC50 (compound alone, run of 04/22/2024) | viability, T/C (compound 0.0316 µM) | viability, T/C (compound 0.1 µM) | viability, T/C (compound 0.316 µM) | viability, T/C (compound 1 µM) | viability, T/C (compound 3.16 µM) | viability, T/C (compound 10 µM) | viability, T/C (compound 0.000999 µM) | viability, T/C (compound 0.00316 µM) | viability, T/C (compound 0.00999 µM) | viability, T/C (compound 0.0999 µM)
COc1cc(C2c3cc4c(cc3C(OC3OC5COC(C)OC5C(O)C3O)C3COC(=O)C23)OCO4)cc(OC)c1O (stereo unspecified) | > 10 µM | – | – | 109% and 95.5% and 112% | 89.4% and 75.1% and 76.9% | 77.2% and 92.8% and 91.9% | 93.1% and 76.8% and 89% | 82.3% and 81.8% and 82.2% | 60.9% and 54.7% and 74.6% | – | – | – | –
COc1ccc([C@@H](O)c2cc(-c3ncnc4cc(N5CCOCC5)ccc34)c(F)cc2Cl)nn1 | > 10 µM | – | – | 92.9% and 91.3% and 86% | 90.2% and 89.7% and 104% | 94.4% and 88.5% and 89.3% | 101% and 83.3% and 91.5% | 82.6% and 73.8% and 58.5% | 65.1% and 78.9% and 67.7% | – | – | – | –
COc1ncnc(C2CC2)c1-c1ncc2cnn(Cc3ccc(-c4nc(C(F)(F)F)cn4C(C)C)cc3)c2n1 | > 10 µM | – | – | 108% and 102% and 88.2% | 74.8% and 112% and 95% | 108% and 90.8% and 83.2% | 75.4% and 97.9% and 84.9% | 82.6% and 103% and 75.4% | 80.2% and 58% and 77.7% | – | – | – | –
Cc1cccc(N(C)C(=O)C2C(O)CCN2c2nc(C)cc(C(F)(F)F)c2C#N)c1 (stereo unspecified) | > 10 µM | – | – | 107% and 89.4% and 99.3% | 97.1% and 94.8% and 91.9% | 97% and 109% and 98% | 88.5% and 83.3% and 100% | 60.2% and 82.8% and 85.9% | 89.4% and 74.4% and 90.4% | – | – | – | –
Cc1cnc(CNC(=O)c2c(=O)c3ccc(N4CCCN(C)CC4)nc3n3c2sc2ccccc23)cn1 | – | > 10 µM | – | – | 95.7% [middle of 12 runs] | 96.5% [middle of 12 runs] | 103% [middle of 12 runs] | – | 91.5% [middle of 12 runs] | – | – | – | –
O=C(NO)c1cnc(N2CCN(S(=O)(=O)c3ccc4ccccc4c3)CC2)nc1 | – | – | – | 65.3% and 97.2% and 113% | 24.7% and 95.1% and 86.5% | 47.4% and 101% and 105% | 41.2% and 82% and 69% | 42.8% and 22.4% and 27.3% | 23.3% and 0.34% and 0.28% | – | – | – | –
